Data on 22 molecules can be found in US7750020B2, “Sulfonamide-thiazolpyridine derivatives as glucokinase activators useful the treatment of Type 2 diabetes” (Novartis AG, priority 2004, dated 2010).

Test system in one data set: not given
Test: not given
In turn, `CCN(CC)S(=O)(=O)c1ccc(C(CC2CCCC2)C(=O)Nc2nc3ccc(OC)nc3s2)cc1` (stereo not shown) [Example 13, 3-Cyclopentyl-2-(4-diethylsulfamoyl-phenyl)-N-(5-methoxy-thiazolo[5,4-b]pyridin-2-yl)-propionamide] showed a melting point of 150 to 152 °C.
In the case of `COc1ccc2nc(NC(=O)C(CC3CCCC3)c3ccc(S(=O)(=O)N(C(C)C)C(C)C)cc3)sc2n1` (stereo not shown) [Example 9, 3-Cyclopentyl-2-(4-diisopropylsulfamoyl-phenyl)-N-(5-methoxy-thiazolo[5,4-b]pyridin-2-yl)-propionamide], the melting point is 83 to 85 °C.
Still for that read-out and setting: the same measure for `CCCCN(CCCC)S(=O)(=O)c1ccc(C(CC2CCCC2)C(=O)Nc2nc3ccc(OC)nc3s2)cc1` (stereo not shown) [Example 25, 3-Cyclopentyl-2-(4-dibutylsulfamoyl-phenyl)-N-(5-methoxy-thiazolo[5,4-b]pyridin-2-yl)-propionamide]: 65 to 67 °C; for `COc1ccc2nc(NC(=O)C(CC3CCCC3)c3ccc(S(=O)(=O)NC4CC4)cc3)sc2n1` (stereo not shown) [Example 4, 3-Cyclopentyl-2-(4-cyclopropylsulfamoyl-phenyl)-N-(5-methoxy-thiazolo[5,4-b]pyridin-2-yl)-propionamide]: 235 to 237 °C; for `COc1ccc2nc(NC(=O)C(CC3CCCC3)c3ccc(S(=O)(=O)Nc4ccccc4)cc3)sc2n1` (stereo not shown) [Example 7, 3-Cyclopentyl-N-(5-methoxy-thiazolo[5,4-b]pyridin-2-yl)-2-(4-phenylsulfamoyl-phenyl)-propionamide]: 223 to 226 °C.
On the same count and under the same terms, under `CCN1CCN(S(=O)(=O)c2ccc(C(CC3CCCC3)C(=O)Nc3nc4ccc(OC)nc4s3)cc2)CC1` (stereo not shown) [Example 26, 3-Cyclopentyl-2-[4-(4-ethyl-piperazine-1-sulfonyl)-phenyl]-N-(5-methoxy-thiazolo[5,4-b]pyridin-2-yl)-propionamide] stands 106 to 110 °C; under `COCCNS(=O)(=O)c1ccc(C(CC2CCCC2)C(=O)Nc2nc3ccc(OC)nc3s2)cc1` (stereo not shown) [Example 5, 3-Cyclopentyl-2-[4-(2-methoxy-ethylsulfamoyl)-phenyl]-N-(5-methoxy-thiazolo[5,4-b]pyridin-2-yl)-propionamide], 209 to 211 °C.
The same measure, in the same setting: under `COc1cccc(CNS(=O)(=O)c2ccc(C(CC3CCCC3)C(=O)Nc3nc4ccc(OC)nc4s3)cc2)c1` (stereo not shown) [Example 6, 3-Cyclopentyl-2-[4-(3-methoxy-benzylsulfamoyl)-phenyl]-N-(5-methoxy-thiazolo[5,4-b]pyridin-2-yl)-propionamide] stands 179 to 181 °C.
`CCCN(CCC)S(=O)(=O)c1ccc(C(CC2CCCC2)C(=O)Nc2nc3ccc(OC)nc3s2)cc1` (stereo not shown) [Example 14, 3-Cyclopentyl-2-(4-dipropylsulfamoyl-phenyl)-N-(5-methoxy-thiazolo[5,4-b]pyridin-2-yl)-propionamide] registered a melting point of 64 to 66 °C.
On the same count and under the same terms, the same measure for `COc1ccc2nc(NC(=O)C(CC3CCCC3)c3ccc(S(=O)(=O)NCc4ccccc4F)cc3)sc2n1` (stereo not shown) [Example 21, 3-Cyclopentyl-2-[4-(2-fluoro-benzylsulfamoyl)-phenyl]-N-(5-methoxy-thiazolo[5,4-b]pyridin-2-yl)-propionamide]: 238 to 240 °C.
The same measure, in the same setting: the same measure for `COc1ccc2nc(NC(=O)C(CC3CCCC3)c3ccc(S(=O)(=O)N4CCOCC4)cc3)sc2n1` (stereo not shown) [Example 18, 3-Cyclopentyl-N-(5-methoxy-thiazolo[5,4-b]pyridin-2-yl)-2-[4-(morpholine-4-sulfonyl)-phenyl]-propionamide]: 120 to 123 °C.
The same measure, in the same setting: the same measure for `COc1ccc2nc(NC(=O)C(CC3CCCC3)c3ccc(S(=O)(=O)N(C)C)cc3)sc2n1` (stereo not shown) [Example 12, 3-Cyclopentyl-2-(4-dimethylsulfamoyl-phenyl)-N-(5-methoxy-thiazolo[5,4-b]pyridin-2-yl)-propionamide]: 229 to 234 °C.
With `COc1ccc2nc(NC(=O)C(CC3CCCC3)c3ccc(S(=O)(=O)NCc4cccs4)cc3)sc2n1` (stereo not shown) [Example 19, 3-Cyclopentyl-N-(5-methoxy-thiazolo[5,4-b]pyridin-2-yl)-2-{4-[(thiophen-2-ylmethyl)-sulfamoyl]-phenyl}-propionamide], the melting point lay within 263 to 268 °C.
For the molecule `COc1ccc2nc(NC(=O)C(CC3CCCC3)c3ccc(S(=O)(=O)NCc4ccccc4)cc3)sc2n1` (stereo not shown) [Example 23, 2-(4-Benzylsulfamoyl-phenyl)-3-cyclopentyl-N-(5-methoxy-thiazolo[5,4-b]pyridin-2-yl)-propionamide], the melting point was 237 to 240 °C.
Still for that read-out and setting: the same measure for `COc1ccc2nc(NC(=O)C(CC3CCCC3)c3ccc(S(=O)(=O)N(C)Cc4ccccc4)cc3)sc2n1` (stereo not shown) [Example 24, 2-[4-(Benzyl-methyl-sulfamoyl)-phenyl]-3-cyclopentyl-N-(5-methoxy-thiazolo[5,4-b]pyridin-2-yl)-propionamide]: 206 to 208 °C; for `COc1ccc2nc(NC(=O)C(CC3CCCC3)c3ccc(S(=O)(=O)N4CCN(C(C)=O)CC4)cc3)sc2n1` (stereo not shown) [Example 27, 2-[4-(4-Acetyl-piperazine-1-sulfonyl)-phenyl]-3-cyclopentyl-N-(5-methoxy-thiazolo[5,4-b]pyridin-2-yl)-propionamide]: 215 to 217 °C; for `COc1ccc2nc(NC(=O)C(CC3CCCC3)c3ccc(S(=O)(=O)N4CCCCC4)cc3)sc2n1` (stereo not shown) [Example 17, 3-Cyclopentyl-N-(5-methoxy-thiazolo[5,4-b]pyridin-2-yl)-2-[4-(piperidine-1-sulfonyl)-phenyl]-propionamide]: 184 to 218 °C.
Same read-out and setting: the same measure for `CCCN(c1ccccc1)S(=O)(=O)c1ccc(C(CC2CCCC2)C(=O)Nc2nc3ccc(OC)nc3s2)cc1` (stereo not shown) [Example 11, 3-Cyclopentyl-N-(5-methoxy-thiazolo[5,4-b]pyridin-2-yl)-2-[4-(phenyl-propyl-sulfamoyl)-phenyl]-propionamide]: 83 to 85 °C; for `COc1ccc2nc(NC(=O)C(CC3CCCC3)c3ccc(S(=O)(=O)NCc4ccco4)cc3)sc2n1` (stereo not shown) [Example 10, 3-Cyclopentyl-2-{4-[(furan-2-ylmethyl)-sulfamoyl]-phenyl}-N-(5-methoxy-thiazolo[5,4-b]pyridin-2-yl)-propionamide]: 244 to 247 °C; for `COc1ccc2nc(NC(=O)C(CC3CCCC3)c3ccc(S(=O)(=O)Nc4cccnc4)cc3)sc2n1` (stereo not shown) [Example 20, 3-Cyclopentyl-N-(5-methoxy-thiazolo[5,4-b]pyridin-2-yl)-2-[4-(pyridin-3-ylsulfamoyl)-phenyl]-propionamide]: 125 to 127 °C.
Still for that read-out and setting: the same measure for `COc1ccc2nc(NC(=O)C(CC3CCCC3)c3ccc(S(=O)(=O)NCc4cccnc4)cc3)sc2n1` (stereo not shown) [Example 15, 3-Cyclopentyl-N-(5-methoxy-thiazolo[5,4-b]pyridin-2-yl)-2-{4-[(pyridin-3-ylmethyl)-sulfamoyl]-phenyl}-propionamide]: 227 to 229 °C.

The target in another data set is T1, recombinant GST-GK (Homo sapiens, UniProt P35557).
T1 sequence (P35557 1-465): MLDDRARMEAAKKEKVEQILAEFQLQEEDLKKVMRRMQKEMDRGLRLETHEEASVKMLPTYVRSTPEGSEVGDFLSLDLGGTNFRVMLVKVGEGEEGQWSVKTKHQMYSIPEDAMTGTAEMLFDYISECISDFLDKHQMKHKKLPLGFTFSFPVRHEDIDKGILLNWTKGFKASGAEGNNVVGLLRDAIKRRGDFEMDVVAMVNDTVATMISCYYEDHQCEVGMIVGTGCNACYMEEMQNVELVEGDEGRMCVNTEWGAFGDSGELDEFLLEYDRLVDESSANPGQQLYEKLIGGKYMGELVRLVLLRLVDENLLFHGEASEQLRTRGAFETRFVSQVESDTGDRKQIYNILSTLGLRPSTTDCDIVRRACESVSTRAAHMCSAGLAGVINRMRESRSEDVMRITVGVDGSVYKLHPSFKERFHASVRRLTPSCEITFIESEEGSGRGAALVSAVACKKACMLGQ
Description: in vitro assay measuring the activation of recombinant GST-GK. Type of data set: biochemical. The text has this:
The glucokinase activation in vitro may be determined by measuring the activation of recombinant GST-GK by a compound of the present invention in the absence or the presence of GKRP, a 68,000 Da protein inhibitor of GK. In these assays, formation of glucose-6-phosphate is coupled directly to the formation of thioNADH. GST-GK catalyzes the reaction of glucose and Mg-ATP to produce glucose-6-phosphate and ADP. Glucose-6-phosphate dehydrogenase (G6PDH) reduces thionicotinamide (thioNAD) to thioNADH. The assay measures the formation of […] at 405 nM.
The basic GK assay components are as follows: 25 mM HEPES (pH 7.1), 25 mM KCl, 2.5 mM MgCl2, 1 mM ATP (Sigma A-5394), 1 mM DTT, 1 mM thioNAD (Sigma T-7375), 80 units/mL G6PDH (Sigma G-5885), 10 mM glucose and […] GST-GK (110 nM). For assessing reversal of GK inhibition by GKRP, 20 μM Fructose-1-phosphate ([…]) and 25 μg/mL of recombinant GKRP (370 nM) are added to these assay components. F-1-P at 1 μM is used as a control in the GK/GKRP assay. F-1-P reverses inhibition of GST-GK by GKRP.
The assay is done in standard, 96-well, round-bottom plates and the total assay volume is 25 μL. […] The plates are then delivered via the Zymark XP arm to a Thermomax plate reader and read kinetically over three min at 405 nM at RT. Units are expressed as milli-optical density per minute (mOD/min).
As for `COc1ccc2nc(NC(=O)C(CC3CCCC3)c3ccc(S(=O)(=O)N4CCN(C)CC4)cc3)sc2n1` (stereo not shown) [Example 1, 3-Cyclopentyl-N-(5-methoxy-thiazolo[5,4-b]pyridin-2-yl)-2-[4-(4-methyl-piperazine-1-sulfonyl)-phenyl]-propionamide], the half-maximal effective concentration (EC50) was around 0.251 µM.
